# Measurements published in patent US7008961B1, “Composition and method for treating carcinoma” (priority 1995, dated 2006).
# Like-named read-outs stand apart in the source and are kept apart here.
# Tests used:
# [1] = tested on: DU-145 prostate cancer cells; assay: MTT cytotoxicity/viability assay, DU-145; assay type: cell-based, human
# Source text: (§1) Assays of Rh-123 toxicity were done with three human prostate cancer cell lines, […], et al.: Establishment and characterization of a human prostatic carcinoma cell line, Invest Urol 17:16-23, 1979), DU-145 (Stone […], et al.: Isolation of a human prostatic carcinoma cell line (DU145), Int J Cancer 21:274-281, 1978), and LNCaP (Horoszewitz J, Leong […], et al.: LNCaP model of human prostatic carcinoma, Cancer Res 43:1809-1818, 1983), and a non-tumorigenic diploid prostate fibroblast cell strain (NPF-209) derived in our laboratories from a normal adult prostate. The NPF cells were used as controls, i.e., for comparison. The cells were maintained in disposable plastic culture vessels in a 1:1 mix of Dulbecco's modified Eagle's medium and Ham's F12 (DMEM/F12, from Sigma Chemical Co, St. Louis, Mo.) supplemented with 10% fetal bovine serum (FBS, from HyClone Labs, Inc., Logan, Utah). 3-[4,5-Dimethylthiazol-2-yl]-2,5-diphenyltetrazolium bromide (MTT), DMSO, and other chemicals were also obtained from Sigma. […] Two different in vitro assays were used to assess cell viability following Rh-123 treatment, namely, • i) colony formation by a clonal assay procedure ([…], Ham R G: Clonal growth of human keratinocytes with small amounts of dialyzed serum, In Vitro 16:526-538, 1980); and • ii) viability of cells determined by the MTT assay utilizing previously described techniques (Alley […], Monks A, et al.: Feasibility of drug screening with panels of human tumor cell lines using a microculture tetrazolium assay, Cancer Res 40:589-601, 1988). Cytotoxicity due to Rh-123 treatment was determined with the human prostate cancer cells grown in 96-well disposable microtiter plates. […] The plates were next read at A540 […] with an Emax precision microplate reader (Molecular Devices Corporation, Menlo Park, Calif.). […] The cell-bound dye is dissolved with DMSO and spectrophotometrically quantitated by absorbance at a wavelength of 540 nm. The OD540 nm reading is a measure of the number of viable cells present in the test sample. […]
# [2] = tested on: metastatic hormone-refractory prostate cancer; assay: Phase I study: prostate specific acid phosphatase in blood after a single dose; assay type: in vivo, human; conditions: Patient 4, Level II (24 mg/m^2), single infusion
# Procedure: The FDA has approved human clinical Phase I study of Rh-123. This phase evaluates the toxicity of Rh-123. The objective of the study is to determine safe dosing levels for Rh-123 starting at a level known to be safe for animals (about 0.3 mg/kg, which is equivalent to about 12 mg/m^2 for the typical prostate cancer patent), and proceeding upward in dosage until signs of moderate toxicity are observed. The Phase I study includes 21 volunteer patients with metastatic hormone-refractory prostate cancer to establish toxicity in a single dose escalation schedule. Only one dose per volunteer participant has been approved to date by the FDA, starting at 12 mg/m^2 at level I (three participants per level), and increasing in subsequent levels until dose-limiting toxicity is observed. Using a solution of four milligrams of Rh-123 per milliliter of a solution which includes 5% alcohol and 5% glucose in distilled water, the FDA has approved the dose escalation schedule shown in Table I: [table] As of the date of this application for patent, seven patients have been treated in accordance with the protocol described above.
# [3] = tested on: normal human adult prostate fibroblasts (NPF); assay: Clonogenic assay (colony growth), NPF; assay type: cell-based
# Source text: (§2) Assays of Rh-123 toxicity were done with three human prostate cancer cell lines, […], et al.: Establishment and characterization of a human prostatic carcinoma cell line, Invest Urol 17:16-23, 1979), DU-145 (Stone […], et al.: Isolation of a human prostatic carcinoma cell line (DU145), Int J Cancer 21:274-281, 1978), and LNCaP (Horoszewitz J, Leong […], et al.: LNCaP model of human prostatic carcinoma, Cancer Res 43:1809-1818, 1983), and a non-tumorigenic diploid prostate fibroblast cell strain (NPF-209) derived in our laboratories from a normal adult prostate. The NPF cells were used as controls, i.e., for comparison. […] Two different in vitro assays were used to assess cell viability following Rh-123 treatment, namely, • i) colony formation by a clonal assay procedure ([…], Ham R G: Clonal growth of human keratinocytes with small amounts of dialyzed serum, In Vitro 16:526-538, 1980); and • ii) viability of cells determined by the MTT assay utilizing previously described techniques (Alley […], Monks A, et al.: Feasibility of drug screening with panels of human tumor cell lines using a microculture tetrazolium assay, Cancer Res 40:589-601, 1988). Clonogenic potential of the treated human prostate cancer cells was determined on 24-hour-old cells seeded in 60 mm disposable dishes (1-2×10^2 cells/dish). […]
# [4] = tested on: transplantable rat prostate tumor R3327-H (Dunning); conditions: saline suspension, s.c. every other day, 15 mg/kg body weight; cited from earlier work
# [5] = tested on: transplantable tumor P-A III; conditions: cited from earlier work
# [6] = tested on: NPF non-tumorigenic diploid prostate fibroblast cells; assay: MTT cytotoxicity/viability assay, NPF; assay type: cell-based, human
# Source text: as §2, with “Cytotoxicity due to Rh-123 treatment was determined with” for “Clonogenic potential of”, “the” for “the treated”, “grown in 96-well disposable microtiter plates. […] The OD540 nm reading is a measure of the number of viable” for “was determined on 24-hour-old”, “present” for “seeded”, “the test sample.” for “60 mm disposable dishes (1-2×10^2 cells/dish).”
# [7] = tested on: DU-145 prostate cancer cells; assay: Clonogenic assay (colony growth), DU-145; assay type: cell-based, human
# Source text: as §2
# [8] = tested on: LNCaP prostate cancer cells; assay: MTT cytotoxicity/viability assay, LNCaP; assay type: cell-based, human
# Source text: as §2, with “Cytotoxicity due to Rh-123 treatment was determined with” for “Clonogenic potential of”, “the” for “the treated”, “grown in 96-well disposable microtiter plates. […] The OD540 nm reading is a measure of the number of viable” for “was determined on 24-hour-old”, “present” for “seeded”, “the test sample.” for “60 mm disposable dishes (1-2×10^2 cells/dish).”
# [9] = tested on: PC-3 prostate cancer cells; assay: Clonogenic assay (colony growth), PC-3; assay type: cell-based, human
# Source text: as §2
# [10] = tested on: autochthonous rat prostate complex adenocarcinoma (ARPCA); assay: Induced autochthonous rat prostate adenocarcinoma in L-W rats; assay type: in vivo; conditions: 15 mg/kg BW s.c. every other day for six doses
# Procedure: To determine the effectiveness of Rh-123 on induced autochthonous rat prostate adenocarcinoma developed within the prostate gland and seminal vesicles of L-W rats, thirteen L-W rats were inoculated intravenously with acidified MNU (30 mg/kg of body weight (BW)). Following the single inoculation of MNU, the rats were each implanted subcutaneously with 50 mg TP sealed in a silastic tube. Three implants of TP were administered, each at intervals of 2 months. After a latent period of 4–6 months, small palpable tumors were detected in the abdomen. The rats were then administered Rh-123 (15 mg/kg BW) subcutaneously every other day for six doses. The Rh-123 was dissolved in a 5% (by volume) ethanol-5% (by weight) glucose solution in sterile water at a concentration of 5 mg/ml. The rats were sacrificed 1 week after the last dose of Rh-123 and their tissues were fixed in 10% formalin.
# [11] = tested on: Swiss Webster mice; assay type: in vivo; conditions: s.c. every other day for 2 weeks
# Procedure: The toxicity of two solvents for Rh-123, DMSO and alcohol-glucose, was studied in 60-day-old Swiss Webster mice (Simonsen Laboratories, Inc., Gilroy, Calif.). For each solvent there were five groups of five mice each, with the Rh-123 dose per group being 0, 2.0, 7.5, 15, and 20 mg/kg of body weight. A sixth group of five mice were not given any solvent or Rh-123. The solvents, with and without Rh-123, were administered at a concentration of 50% by volume DMSO in distilled water, and 5% alcohol by volume in a 5% by weight solution of glucose in distilled water. […] The concentration of Rh-123 was 5 mg/ml. Appropriate controls were utilized. The mice were injected subcutaneously every other day for 2 weeks.
# [12] = tested on: LNCaP prostate cancer cells; assay: Clonogenic assay (colony growth), LNCaP; assay type: cell-based, human
# Source text: as §2
# [13] = tested on: PC-3 prostate cancer cells; assay: MTT cytotoxicity/viability assay, PC-3; assay type: cell-based, human
# Source text: as §1
smiles,measurement,setting,value
"COC(=O)c1ccccc1-c1c2ccc(=N)cc-2oc2cc(N)ccc12.Cl [Rh-123, methyl o-(6-amino-3-imino-3H-xanthen-9-yl) benzoate monohydrochloride]",recovery of treated cells in Rh-123-free normal growth medium,[1]; DU-145,poor
same,relative sensitivity to Rh-123 exposure among the cancer cell lines,[1]; DU-145,more refractory than either the PC-3 or the LNCaP cells
same,loss of viable cells,"[1]; DU-145, exposed 2 days or longer, concentrations as low as 1.25–2 μg/ml",marked
same,course of prostate specific acid phosphatase in blood after 48 hours,[2],steadily decreased until two months after the infusion
same,maximal suppression of colony growth,[3]; 72-hour exposure,28 % of control
same,suppression of colony growth,[3]; 72-hour exposure to 50 μg/ml (data not shown),Total suppression was not achieved
same,effect on tumor (histology),[4],significant destructive alteration of the acinar cells
same,effect on tumor cells,[5]; Rh-123 dissolved in DMSO,significant destruction of tumor cells
same,sensitivity of tumor to Rh-123,[5]; Rh-123 dissolved in DMSO,highly sensitive
same,toxicity in normal cells,"[5]; rat, in vivo",no toxicity noted
same,tumor growth after injection of tumor remnants into untreated susceptible L-W rats,[5]; remnants of Rh-123-treated tumor,no tumor growth
same,growth inhibition due to Rh-123 treatment,"[6]; 0–80 μg/ml, FIG. 5",much less than that observed with tumorigenic cells
same,viability of cells,[6]; after prolonged Rh-123 exposures,remained relatively high
same,suppression of colony growth,"[7]; DU-145, 10 μg/ml for 72 hours",Complete suppression
same,growth suppression (colony growth),"[7]; DU-145, compared with PC-3 and LNCaP",less marked
same,recovery of treated cells in Rh-123-free normal growth medium,[8],poor
same,loss of viable cells,"[8]; exposed 2 days or longer, concentrations as low as 1.25–2 μg/ml",marked
same,suppression of colony growth,"[9]; PC-3, 10 μg/ml for 72 hours",Complete suppression
same,colony growth,"[9]; PC-3, exposure to 10 μg/ml",greatly suppressed
same,effect on normal surrounding tissue,[10],no change
same,gross changes in the tumor mass of the prostate complex,[10],No gross changes
same,microscopic examination of tumor tissue of prostate complex,[10]; sacrificed 1 week after last dose,"marked cellular and acinar destruction, pyknosis, cytoplasmic smearing, and intraepithelial cyst formation"
same,mortality,"[11]; 15 mg/kg Rh-123 in 50% DMSO, group of five mice",one of five mice died
same,mortality,"[11]; 20 mg/kg Rh-123 in 50% DMSO, group of five mice",Three of five mice died
same,mortality,[11]; 20 mg/kg Rh-123 in alcohol-glucose solution,no mortality
same,suppression of colony growth,[12]; 10 μg/ml for 72 hours,Complete suppression
same,colony growth,[12]; exposure to 10 μg/ml,greatly suppressed
same,recovery of treated cells in Rh-123-free normal growth medium,[13]; PC-3,poor
same,relative sensitivity to Rh-123 exposure among the cancer cell lines,[13]; PC-3,most sensitive
same,loss of viable cells,"[13]; PC-3, exposed 2 days or longer, concentrations as low as 1.25–2 μg/ml",marked
